In ChEMBL document CHEMBL4418479, “Diamino heterocyclic carboxamide compound” (2016):
Calls of active or inactive are those of the source. No cut-off for these calls is given here.

Assays:
NCI-H2228 = assay: Antitumor activity against EML4-ALK fusion protein harboring human NCI-H2228 cells xenografted in NOD/SCID mouse assessed as inhibition of tumor growth at 1 mg/kg, po dosed once daily for 14 days starting 3 weeks of tumor cell inoculation and measured every other day relative to untreated control; assay type: functional
[1] = Antitumor activity against mouse NIH-3T3/EML4-ALK cells implanted in Balb/c mouse assessed as inhibition of tumor growth at 10 mg/kg, po dosed once daily for 5 days and measured every other day relative to untreated control; assay type: functional; details: NIH3T3, po, 120 h, read-out: TGI
[2] = biological target: ALK tyrosine kinase receptor (Homo sapiens) (UniProt Q9UM73); details: 5 nM
Chain of ALK tyrosine kinase receptor (Homo sapiens) (Q9UM73 19-1620 limits assumed): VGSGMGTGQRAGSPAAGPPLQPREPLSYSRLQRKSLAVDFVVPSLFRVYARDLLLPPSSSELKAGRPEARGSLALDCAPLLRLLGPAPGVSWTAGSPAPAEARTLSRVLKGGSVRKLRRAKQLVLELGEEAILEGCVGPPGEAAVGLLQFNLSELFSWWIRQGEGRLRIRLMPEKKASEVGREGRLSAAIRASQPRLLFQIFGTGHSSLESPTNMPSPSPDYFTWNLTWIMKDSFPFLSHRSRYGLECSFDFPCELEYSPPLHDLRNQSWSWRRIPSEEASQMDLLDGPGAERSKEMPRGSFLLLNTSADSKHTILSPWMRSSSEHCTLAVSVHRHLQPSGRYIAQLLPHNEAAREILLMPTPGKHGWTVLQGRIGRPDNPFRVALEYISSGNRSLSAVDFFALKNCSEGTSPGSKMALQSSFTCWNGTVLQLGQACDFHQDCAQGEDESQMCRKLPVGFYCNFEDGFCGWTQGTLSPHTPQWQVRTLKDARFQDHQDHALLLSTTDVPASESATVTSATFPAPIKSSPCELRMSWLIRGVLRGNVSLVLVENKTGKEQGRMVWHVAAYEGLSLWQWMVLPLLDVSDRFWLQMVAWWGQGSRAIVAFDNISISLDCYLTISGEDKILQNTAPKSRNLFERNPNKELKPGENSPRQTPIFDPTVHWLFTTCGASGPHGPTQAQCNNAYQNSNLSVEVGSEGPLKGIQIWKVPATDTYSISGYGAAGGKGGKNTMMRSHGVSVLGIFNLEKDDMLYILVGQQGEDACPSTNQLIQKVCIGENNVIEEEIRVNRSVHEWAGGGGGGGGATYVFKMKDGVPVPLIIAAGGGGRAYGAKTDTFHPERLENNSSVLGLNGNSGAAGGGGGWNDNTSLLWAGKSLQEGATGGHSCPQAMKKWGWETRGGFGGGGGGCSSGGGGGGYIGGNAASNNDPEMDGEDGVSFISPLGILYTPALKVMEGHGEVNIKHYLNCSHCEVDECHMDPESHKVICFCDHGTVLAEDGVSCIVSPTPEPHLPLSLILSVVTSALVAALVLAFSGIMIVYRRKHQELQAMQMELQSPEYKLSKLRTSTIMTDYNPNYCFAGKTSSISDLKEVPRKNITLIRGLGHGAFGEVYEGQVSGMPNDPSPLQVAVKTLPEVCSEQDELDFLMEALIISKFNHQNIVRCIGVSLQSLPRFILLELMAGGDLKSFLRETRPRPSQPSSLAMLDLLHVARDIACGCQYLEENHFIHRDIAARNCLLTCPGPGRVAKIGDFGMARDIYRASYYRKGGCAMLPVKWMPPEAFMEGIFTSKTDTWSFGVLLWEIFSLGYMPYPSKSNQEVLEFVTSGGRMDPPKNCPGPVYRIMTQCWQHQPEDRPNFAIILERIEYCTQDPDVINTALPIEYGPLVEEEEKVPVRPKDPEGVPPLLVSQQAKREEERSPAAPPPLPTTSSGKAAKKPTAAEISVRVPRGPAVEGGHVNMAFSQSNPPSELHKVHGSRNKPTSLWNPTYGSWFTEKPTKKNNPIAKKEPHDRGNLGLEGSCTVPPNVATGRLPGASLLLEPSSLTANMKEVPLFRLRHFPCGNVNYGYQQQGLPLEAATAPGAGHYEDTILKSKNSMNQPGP
Description: Inhibition of N-terminal GST-tagged human ALK cytoplasmic domain (1058 to 1620 amino acids) expressed in baculovirus expression system at 5 nM relative to control

EML4-ALK [3] = biological target: EML4-ALK (Homo sapiens, UniProt Q9UM73); assay: Inhibition of recombinant FLAG-tagged EML4-ALK fusion protein (unknown origin) expressed in mouse BA/F3 cells using peptide substrate and ATP incubated for 1 hr by HTRF assay
Chain of EML4-ALK (Homo sapiens, UniProt Q9UM73) (Q9UM73 whole entry, the tested form may be a part): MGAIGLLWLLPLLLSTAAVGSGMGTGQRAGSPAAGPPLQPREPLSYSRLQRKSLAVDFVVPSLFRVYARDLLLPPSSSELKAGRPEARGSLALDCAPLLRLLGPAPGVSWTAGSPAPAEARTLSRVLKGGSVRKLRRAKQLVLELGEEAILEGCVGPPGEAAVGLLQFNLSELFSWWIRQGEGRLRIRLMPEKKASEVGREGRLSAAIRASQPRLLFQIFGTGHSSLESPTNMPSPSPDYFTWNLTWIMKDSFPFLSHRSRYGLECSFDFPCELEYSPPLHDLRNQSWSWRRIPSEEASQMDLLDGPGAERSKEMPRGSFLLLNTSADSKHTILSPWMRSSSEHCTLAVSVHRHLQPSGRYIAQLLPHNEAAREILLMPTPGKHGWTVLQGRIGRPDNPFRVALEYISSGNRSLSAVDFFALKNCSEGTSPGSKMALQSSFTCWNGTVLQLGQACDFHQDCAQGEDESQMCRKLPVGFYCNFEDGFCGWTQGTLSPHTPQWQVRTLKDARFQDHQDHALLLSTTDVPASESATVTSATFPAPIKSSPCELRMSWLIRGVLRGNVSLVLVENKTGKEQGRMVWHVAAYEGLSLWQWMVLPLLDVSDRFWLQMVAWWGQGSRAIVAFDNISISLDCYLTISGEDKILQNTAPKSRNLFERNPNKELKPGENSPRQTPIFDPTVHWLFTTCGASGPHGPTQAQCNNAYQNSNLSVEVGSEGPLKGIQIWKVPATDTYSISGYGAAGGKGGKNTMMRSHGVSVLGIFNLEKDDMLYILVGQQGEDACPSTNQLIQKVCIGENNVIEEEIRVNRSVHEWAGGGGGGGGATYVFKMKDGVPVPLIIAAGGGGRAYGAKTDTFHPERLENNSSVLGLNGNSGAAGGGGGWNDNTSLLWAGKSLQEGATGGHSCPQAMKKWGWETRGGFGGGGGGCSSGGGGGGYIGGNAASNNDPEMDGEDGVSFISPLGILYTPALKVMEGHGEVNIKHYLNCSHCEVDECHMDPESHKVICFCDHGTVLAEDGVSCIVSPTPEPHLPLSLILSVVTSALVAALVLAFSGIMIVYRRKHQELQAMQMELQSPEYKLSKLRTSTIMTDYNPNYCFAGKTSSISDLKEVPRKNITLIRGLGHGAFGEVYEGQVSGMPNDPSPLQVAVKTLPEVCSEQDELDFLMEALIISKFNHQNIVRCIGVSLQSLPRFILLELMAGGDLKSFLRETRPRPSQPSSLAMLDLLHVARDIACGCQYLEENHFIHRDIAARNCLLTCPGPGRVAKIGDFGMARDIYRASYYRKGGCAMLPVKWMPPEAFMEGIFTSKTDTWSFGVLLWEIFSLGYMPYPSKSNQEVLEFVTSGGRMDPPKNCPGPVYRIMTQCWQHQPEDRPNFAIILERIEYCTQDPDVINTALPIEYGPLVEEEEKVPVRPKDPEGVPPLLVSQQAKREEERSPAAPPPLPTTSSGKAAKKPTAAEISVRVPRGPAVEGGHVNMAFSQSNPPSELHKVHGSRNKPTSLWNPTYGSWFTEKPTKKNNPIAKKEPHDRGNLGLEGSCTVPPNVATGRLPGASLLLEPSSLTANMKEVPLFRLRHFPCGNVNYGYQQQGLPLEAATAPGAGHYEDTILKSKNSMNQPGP
Chain of EML4-ALK (Homo sapiens, UniProt Q9UM73) (Q9HC35 whole entry, further chain, the tested form may be a part): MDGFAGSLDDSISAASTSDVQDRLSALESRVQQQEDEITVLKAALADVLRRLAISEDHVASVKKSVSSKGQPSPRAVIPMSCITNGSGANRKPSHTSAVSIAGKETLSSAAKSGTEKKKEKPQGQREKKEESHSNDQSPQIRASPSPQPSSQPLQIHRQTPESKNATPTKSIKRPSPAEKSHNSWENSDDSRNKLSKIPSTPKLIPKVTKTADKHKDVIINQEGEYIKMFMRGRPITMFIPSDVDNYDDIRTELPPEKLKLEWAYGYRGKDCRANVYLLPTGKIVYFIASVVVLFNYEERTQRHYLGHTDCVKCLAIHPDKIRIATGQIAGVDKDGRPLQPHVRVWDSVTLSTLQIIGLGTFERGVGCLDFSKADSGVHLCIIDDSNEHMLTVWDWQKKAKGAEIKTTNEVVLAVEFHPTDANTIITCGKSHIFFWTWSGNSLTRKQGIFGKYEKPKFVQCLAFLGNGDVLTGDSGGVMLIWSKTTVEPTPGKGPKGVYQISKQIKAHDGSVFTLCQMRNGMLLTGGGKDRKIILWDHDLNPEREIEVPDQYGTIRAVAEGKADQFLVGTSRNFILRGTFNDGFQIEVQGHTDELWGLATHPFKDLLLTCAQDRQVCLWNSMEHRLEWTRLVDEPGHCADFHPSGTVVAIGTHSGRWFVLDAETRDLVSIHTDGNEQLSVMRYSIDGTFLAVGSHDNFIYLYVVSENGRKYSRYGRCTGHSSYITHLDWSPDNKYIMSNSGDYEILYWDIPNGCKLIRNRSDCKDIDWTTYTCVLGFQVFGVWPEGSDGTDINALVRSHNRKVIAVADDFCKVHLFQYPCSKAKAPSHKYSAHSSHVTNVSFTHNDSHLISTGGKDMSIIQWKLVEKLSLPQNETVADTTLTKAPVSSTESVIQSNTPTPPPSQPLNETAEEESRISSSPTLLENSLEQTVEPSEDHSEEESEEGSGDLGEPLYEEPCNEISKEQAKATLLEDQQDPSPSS

EML4-ALK [4] = biological target: EML4-ALK (Homo sapiens, UniProt Q9UM73+Q9HC35); assay: Inhibition of recombinant FLAG-tagged EML4-ALK fusion protein (unknown origin) expressed in mouse BA/F3 cells assessed as inhibition of cell growth incubated for 2 days by alamar blue dye based assay
Chain of EML4-ALK (Homo sapiens, UniProt Q9UM73+Q9HC35) (Q9UM73 whole entry, the tested form may be a part): as the sequence (Q9UM73 whole entry, the tested form may be a part) above
Chain of EML4-ALK (Homo sapiens, UniProt Q9UM73+Q9HC35) (Q9HC35 whole entry, the tested form may be a part): as the sequence (Q9HC35 whole entry, further chain, the tested form may be a part) above

Row | Structure (SMILES) | inhibition [2] | also measured
1 | NC(=O)c1cnc(N[C@@H]2CCCC[C@@H]2N)nc1Nc1ccc(-c2ccc(N3CCOCC3)cc2)cc1 (racemic) |  | TGI (NCI-H2228): inactive
2 | CCc1nc(C(N)=O)c(Nc2ccc(N3CCC(N4CCN(C)CC4)CC3)c(C)c2)nc1N[C@H]1CC[C@H](O)CC1 | > 50% | inhibition in vivo at 10 mg/kg [1]: 92%
3 | CCc1nc(C(N)=O)c(Nc2ccc(N3CCC(N4CCN(C)CC4)CC3)c(C)c2)nc1N[C@H]1CC[C@](O)(CC)CC1 |  | IC50 (EML4-ALK [3]): 3.1 nM
4 | CCc1nc(C(N)=O)c(Nc2ccc(N3CCC(N4CCN(C)CC4)CC3)cc2)nc1N[C@H]1CC[C@H](O)CC1 | > 50% | 
5 | CCc1nc(C(N)=O)c(Nc2ccc(N3CCC(N4CCN(C)CC4)CC3)cc2)nc1NC1CCOCC1 | > 50% | inhibition in vivo at 10 mg/kg [1]: 79%
6 | Cc1cc(Nc2nc(N[C@H]3CC[C@H](O)CC3)c(Cl)nc2C(N)=O)ccc1N1CCC(N2CCN(C)CC2)CC1 | > 50% | 
7 | CCc1nc(C(N)=O)c(Nc2ccc3cnn(C)c3c2)nc1N[C@H]1CC[C@H](O)CC1 |  | IC50 (EML4-ALK [4]): 76 nM
8 | CCc1nc(C(N)=O)c(Nc2ccc(N3CCC(N4CCN(C)CC4)CC3)c(OC)c2)nc1NC1CCOCC1 | > 50% | 
9 | CC(C)c1nc(C(N)=O)c(Nc2ccc(N3CCN(C)CC3)cc2)nc1NC1CCOCC1 | > 50% | 
10 | CCc1nc(C(N)=O)c(Nc2ccc(N3CCN(C)CC3)cc2)nc1N[C@H]1CC[C@H](O)CC1 | > 50% | 
11 | CCc1nc(C(N)=O)c(Nc2ccc(N3CCN(C4CCN(C)CC4)CC3)c(C)c2)nc1NC1CCOCC1 | > 50% | 
12 | CCc1nc(C(N)=O)c(Nc2ccc(N3CCN(C(C)C)CC3)c(C)c2)nc1N[C@H]1CC[C@H](O)CC1 | > 50% | inhibition in vivo at 10 mg/kg [1]: 81%
13 | CCc1nc(C(N)=O)c(Nc2ccc(N3CCC(N4CCN(C)CC4)CC3)c(C)c2)nc1NC1CCOCC1 | > 50% | 
14 | CCc1nc(C(N)=O)c(Nc2ccc(N3CCC(N4CCN(C)CC4)CC3)c(C)c2)nc1N[C@H]1CC[C@@](O)(CC)CC1 |  | IC50 (EML4-ALK [3]): 2.8 nM
15 | CCc1nc(C(N)=O)c(Nc2ccc(N3CCC(N4CCN(C)CC4)CC3)c(C)c2)nc1N[C@H]1CC[C@](C)(O)CC1 | > 50% | 
16 | CCc1nc(C(N)=O)c(Nc2ccc(N3CCC(N4CCN(C)CC4)CC3)c(C(F)(F)F)c2)nc1N[C@H]1CC[C@H](O)CC1 | > 50% | inhibition in vivo at 10 mg/kg [1]: 81%
17 | COc1cc(Nc2nc(NC3CCOCC3)c(C(C)C)nc2C(N)=O)ccc1N1CCN(C)CC1 | > 50% | inhibition in vivo at 10 mg/kg [1]: 63%
18 | CCc1nc(C(N)=O)c(Nc2ccc(N3CCC(N4CCN(C)CC4)CC3)c(C)c2)nc1N[C@H]1CC[C@@](O)(C(C)C)CC1 |  | IC50 (EML4-ALK [3]): 4.1 nM
19 | CC(C)c1nc(C(N)=O)c(Nc2ccc(N3CCC(N4CCN(C)CC4)CC3)c(C(F)(F)F)c2)nc1N[C@H]1CC[C@H](O)CC1 | > 50% | 
20 | CCc1nc(C(N)=O)c(Nc2cccc(C)c2)nc1NCCN(C)C |  | TGI (NCI-H2228): inactive
21 | CCc1nc(C(N)=O)c(Nc2ccc(N3CCN(C)CC3)c(F)c2)nc1NC1CCOCC1 | > 50% | 
22 | CCc1nc(C(N)=O)c(Nc2ccc(N3CCC(N4CCN(C)CC4)CC3)c(C)c2)nc1N[C@H]1CC[C@@](C)(O)CC1 | > 50% | 
23 | CC(C)c1nc(C(N)=O)c(Nc2ccc(N3CCC(N4CCN(C)CC4)CC3)cc2)nc1NC1CCOCC1 | > 50% | inhibition in vivo at 1 mg/kg (NCI-H2228; read-out: TGI): 69%
24 | CC(C)c1nc(C(N)=O)c(Nc2ccc(N3CCN(C)CC3)cc2)nc1N[C@H]1CC[C@H](O)CC1 | > 50% | 
25 | CCc1nc(C(N)=O)c(Nc2ccc(N3CCC(N4CCN(C)CC4)CC3)c(C)c2)nc1N[C@H]1CC[C@](O)(C(C)C)CC1 |  | IC50 (EML4-ALK [3]): 2.6 nM
